Experimental data as given in patent publication US20040067565A1, “Selective functionalization of hydrocarbons with isolated oxygenases and mediator based regeneration” (priority 2002, published 2004).

Tested on: 2-hydroxybiphenyl-3-monooxygenase (HbpA, E.C. 1.14.13.44)
Experiment: Residual HbpA activity while incubation with [Cp*Rh(bpy)(H2O)]2+
Format: biochemical
Method: HbpA-activities were determined by UV-spectroscopy according to literature methods by supplementing the experiment buffer with 0.1 mM NADH and observation of NADH-depletion at 340 nm for 1 minute, afterwards 2 mM of 2-hydroxybiphenyl were added and NADH depletion was measured for 1 minute. HbpA activity was determined as difference of both rates.
In a first experiment 0.11 U*ml^−1 HbpA of a partially enriched crude extract from recombinant E. coli overexpressing HbpA was incubated at 30° C. with 0, 0.02, 0.04, and 0.1 mM [Cp*Rh(bpy)(H2O)]^2+. In a second experiment c[Cp*Rh(bpy)(H2O)]^2+) was maintained at 0.02 mM whereas the HbpA content varied form 0.22 U*ml^−1 to 1.52 U*ml^−1.

[1] = [Cp*Rh(bpy)] 0.02 mM, [HbpA] 0.22 U/ml
[2] = [Cp*Rh(bpy)] 0.02 mM, [HbpA] 0.44 U/ml
[3] = [Cp*Rh(bpy)] 0.02 mM, [HbpA] 1.52 U/ml

`Cc1c(C)c(C)[c-](C)c1C.O.[Rh+3].c1ccc(-c2ccccn2)nc1` [[Cp*Rh(bpy)(H2O)]^2+] was tested, and the “effect of incubation on HbpA enzymatic activity” value was “complete loss of enzymatic activity”, the “HbpA activity at t = 60 min” value [1] was 16% and the t25% [1] was 39 min. The “HbpA activity at t = 60 min” value [2] was 42%, the t25% [2] was 173 min and the “HbpA activity at t = 60 min” value [3] was 68%. For the same compound, the t25% [3] was over 1260 min, the t25% ([Hbpa] 0.11 U/ml, [Cp*Rh(bpy)] 0.02 mM, 30 °C) was 70 min and the t25% ([Hbpa] 0.11 U/ml, [Cp*Rh(bpy)] 0.04 mM, 30 °C) was 12 min. It also gave a t25% ([Hbpa] 0.11 U/ml, [Cp*Rh(bpy)] 0.1 mM, 30 °C) of under 5 min.
